Source: ChEMBL document CHEMBL1142780, “Phenylpyrroles, a new chemolibrary virtual screening class of 5-HT7 receptor ligands” (Bioorg Med Chem Lett, 2005)

Key:
[1] = molecular target: 5-hydroxytryptamine receptor 7 (Rattus norvegicus) (UniProt P32305); test: Inhibition of the binding of [3H]LSD on rat 5-HT7R in HEK293 cells at concentration of 10e-8 M; assay type: cell-based
[2] = molecular target: 5-hydroxytryptamine receptor 7 (Rattus norvegicus) (UniProt P32305); test: Inhibition of the binding of [3H]LSD on rat 5-HT7R in HEK293 cells at concentration of 10e-6 M; assay type: cell-based
[3] = molecular target: T1, 5-hydroxytryptamine receptor 7 (Homo sapiens, UniProt P34969); test: Inhibition of the binding of [3H]LSD on human 5-HT7R expressed in sf9 cells at concentration of 10e-6 M
T1 sequence (P34969 whole entry): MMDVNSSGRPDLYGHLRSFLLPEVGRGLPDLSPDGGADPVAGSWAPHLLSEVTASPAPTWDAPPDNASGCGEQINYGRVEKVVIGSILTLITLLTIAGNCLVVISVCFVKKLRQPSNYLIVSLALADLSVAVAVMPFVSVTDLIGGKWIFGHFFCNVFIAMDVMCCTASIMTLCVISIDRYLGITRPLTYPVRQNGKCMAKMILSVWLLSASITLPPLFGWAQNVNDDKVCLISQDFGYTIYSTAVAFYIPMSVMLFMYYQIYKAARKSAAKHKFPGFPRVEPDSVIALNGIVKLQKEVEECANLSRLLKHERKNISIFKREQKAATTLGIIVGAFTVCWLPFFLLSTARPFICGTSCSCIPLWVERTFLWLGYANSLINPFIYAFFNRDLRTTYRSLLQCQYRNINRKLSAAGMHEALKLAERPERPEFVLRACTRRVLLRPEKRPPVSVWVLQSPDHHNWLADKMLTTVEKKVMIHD

[4] = molecular target: T1, 5-hydroxytryptamine receptor 7; test: Inhibition of the binding of [3H]LSD on human 5-HT7R expressed in sf9 cells at concentration of 10e-8 M
[5] = molecular target: T1, 5-hydroxytryptamine receptor 7
Description: PKb value against Human 5-HT7 receptor

[6] = molecular target: 5-hydroxytryptamine receptor 6 (Homo sapiens) (UniProt P50406); test: Inhibition of the binding of [3H]LSD (radioligand) on human 5-HT6 receptor at concentration of 10e-6 M
Chain of 5-hydroxytryptamine receptor 6 (Homo sapiens) (P50406 whole entry): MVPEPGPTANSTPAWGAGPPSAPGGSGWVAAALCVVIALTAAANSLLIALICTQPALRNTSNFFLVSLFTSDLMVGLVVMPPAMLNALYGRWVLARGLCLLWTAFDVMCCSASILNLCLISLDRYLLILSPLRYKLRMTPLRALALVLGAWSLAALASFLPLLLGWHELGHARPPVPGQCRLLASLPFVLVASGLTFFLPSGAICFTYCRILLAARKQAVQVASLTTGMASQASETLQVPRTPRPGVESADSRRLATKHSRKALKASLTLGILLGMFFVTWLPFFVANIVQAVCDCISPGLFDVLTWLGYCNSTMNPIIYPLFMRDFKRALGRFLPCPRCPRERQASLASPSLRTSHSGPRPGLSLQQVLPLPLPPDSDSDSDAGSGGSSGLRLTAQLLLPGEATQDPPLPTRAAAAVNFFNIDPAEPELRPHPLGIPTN

[7] = molecular target: 5-hydroxytryptamine receptor 6 (Homo sapiens) (UniProt P50406); test: Inhibition of the binding of [3H]LSD (radioligand) on human 5-HT6 receptor at concentration of 10e-8 M
[8] = molecular target: T1, 5-hydroxytryptamine receptor 7; test: Binding affinity against Human 5-HT7R expressed in sf9 cells
[9] = molecular target: T2, 5-hydroxytryptamine receptor 1A (Rattus norvegicus, UniProt P19327); test: Binding affinity against rat 5-HT1A receptor
T2 sequence (P19327 whole entry): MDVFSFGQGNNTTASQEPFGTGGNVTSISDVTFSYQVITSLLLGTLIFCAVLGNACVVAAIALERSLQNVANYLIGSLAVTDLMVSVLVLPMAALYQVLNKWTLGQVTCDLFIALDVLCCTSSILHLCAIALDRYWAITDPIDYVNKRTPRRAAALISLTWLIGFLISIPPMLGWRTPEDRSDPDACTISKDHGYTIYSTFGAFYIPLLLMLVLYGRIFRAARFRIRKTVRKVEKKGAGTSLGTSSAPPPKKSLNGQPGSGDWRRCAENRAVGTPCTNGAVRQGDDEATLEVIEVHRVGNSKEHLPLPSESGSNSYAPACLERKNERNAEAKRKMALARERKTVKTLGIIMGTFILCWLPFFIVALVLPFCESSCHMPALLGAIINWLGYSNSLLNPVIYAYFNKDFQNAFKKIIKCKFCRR

[10] = molecular target: 5-hydroxytryptamine receptor 7 (Rattus norvegicus) (UniProt P32305); test: Inhibition of the binding of [3H]LSD on rat 5-HT7R expressed in HEK293 cells at concentration of 10e-8 M; assay type: cell-based
[11] = molecular target: 5-hydroxytryptamine receptor 7 (Rattus norvegicus) (UniProt P32305); test: Inhibition of the binding of [3H]LSD on rat 5-HT7R expressed in HEK293 cells at concentration of 10e-6 M; assay type: cell-based
[12] = molecular target: 5-hydroxytryptamine receptor 7 (Rattus norvegicus, UniProt P32305); test: Binding affinity against rat 5-HT7R expressed in HEK293 cells; assay type: cell-based
Chain of 5-hydroxytryptamine receptor 7 (Rattus norvegicus, UniProt P32305) (P32305 whole entry): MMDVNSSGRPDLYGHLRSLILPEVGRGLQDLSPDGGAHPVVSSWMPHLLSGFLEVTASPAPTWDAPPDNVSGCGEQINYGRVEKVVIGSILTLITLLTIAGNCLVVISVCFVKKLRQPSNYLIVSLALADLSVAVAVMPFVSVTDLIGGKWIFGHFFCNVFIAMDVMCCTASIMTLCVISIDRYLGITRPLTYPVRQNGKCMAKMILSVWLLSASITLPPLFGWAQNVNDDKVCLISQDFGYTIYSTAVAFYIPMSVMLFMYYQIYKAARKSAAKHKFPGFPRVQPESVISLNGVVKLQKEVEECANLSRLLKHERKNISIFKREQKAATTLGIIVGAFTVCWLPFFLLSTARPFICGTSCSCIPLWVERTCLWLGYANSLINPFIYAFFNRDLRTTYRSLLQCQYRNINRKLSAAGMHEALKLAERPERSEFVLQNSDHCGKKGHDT

Chain of 5-hydroxytryptamine receptor 7 (Rattus norvegicus) (P32305 whole entry): as above

Work on `Cc1ccccc1-n1ccc(CN2CCN(c3noc4ccccc34)CC2)c1` yielded an inhibition [1] of 9% and an inhibition [2] of 42%.
With `COc1ccccc1N1CCN(Cc2cccn2-c2ccccc2)CC1` the inhibition [3] was 91% and the inhibition [4] was 0%.
Compound `COC(=O)c1cccc(C)c1-n1ccc(CN2CCN(c3ccccc3OC)CC2)c1` has a PKb [5] of 7.66, an inhibition [6] of 20% and an inhibition [7] of 9%. The Ki [8] was 18 nM and the Ki [9] was 18.5 nM.
In the case of `COc1ccccc1N1CCN(Cc2cccn2-c2ccccc2C(F)(F)F)CC1`, the inhibition [10] is reported as 7% and the inhibition [11] is reported as 38%.
Work on `Cc1ccccc1-n1cccc1CN1CCN(c2noc3ccccc23)CC1` yielded an inhibition [10] of 0% and an inhibition [11] of 47%.
`COc1ccccc1N1CCN(Cc2ccn(-c3c(C)cc(C)cc3C)c2)CC1` gave an inhibition [1] of 0% and an inhibition [2] of 32%.
For `COc1ccccc1N1CCN(Cc2ccn(-c3ccccc3C)c2)CC1`, the Ki [12] was 21 nM, the inhibition [1] was 22% and the inhibition [6] was 9%. For the same compound, the inhibition [2] was 95%, the inhibition [7] was 7% and the Ki [8] was 4.7 nM. It also gave a Ki [9] of 9.9 nM.
`COc1ccccc1N1CCN(Cc2cccn2-c2ccc(Cl)cc2Cl)CC1` gave an inhibition [3] of 66% and an inhibition [4] of 0%.
`COc1ccc(-n2cccc2CCN)cc1` was tested, and the inhibition [3] was 36% and the inhibition [4] was 3%.
For `Cc1cccc(-n2cccc2CCN)c1C`, the inhibition [3] was 72% and the inhibition [4] was 0%.
Work on `COc1ccccc1N1CCN(Cc2cccn2-c2ccccc2C)CC1` yielded an inhibition [10] of 0% and an inhibition [11] of 63%.
For `COc1ccccc1N1CCN(Cc2cccn2-c2ccccc2C#N)CC1`, the inhibition [10] was 0% and the inhibition [11] was 24%.
With `Cc1cccc(-n2cccc2CN2CCN(C)CC2)c1C` the inhibition [10] was 0% and the inhibition [11] was 33%.
In the case of `COc1ccccc1-n1cccc1CN1CCN(C)CC1`, the inhibition [10] is reported as 0% and the inhibition [11] is reported as 12%.
Compound `CCOc1ccc(OCC)c(-n2cccc2CCN)c1` has an inhibition [3] of 14% and an inhibition [4] of 0%.
`COc1ccccc1N1CCN(Cc2ccn(-c3ccccc3OC)c2)CC1` was tested, and the inhibition [1] was 0% and the inhibition [2] was 6%.
`COc1ccccc1N1CCN(Cc2cccn2-c2ccccc2-c2ccccc2)CC1` showed an inhibition [10] of 0% and an inhibition [11] of 26%.
In the case of `COc1ccccc1N1CCN(Cc2cccn2-c2cccc(C)c2C)CC1`, the inhibition [10] is reported as 2% and the inhibition [11] is reported as 68%.
Compound `COc1ccccc1N1CCN(Cc2ccn(-c3ccccc3C(F)(F)F)c2)CC1` has a Ki [12] of 105 nM, an inhibition [1] of 21% and an inhibition [2] of 91%.
For `NCCc1cccn1-c1ccccc1`, the inhibition [3] was 31% and the inhibition [4] was 0%.
For `COc1ccccc1N1CCN(Cc2ccn(-c3ccccc3C#N)c2)CC1`, the Ki [12] was 19 nM, the PKb [5] was 7.43 and the inhibition [1] was 14%. The inhibition [6] was 12%, the inhibition [2] was 96% and the inhibition [7] was 10%. For the same compound, the Ki [8] was 5.4 nM and the Ki [9] was 33.7 nM.
Compound `COc1ccccc1N1CCN(Cc2ccn(-c3cccc(C)c3C)c2)CC1` has an inhibition [1] of 0% and an inhibition [2] of 91%.
Work on `COc1ccccc1N1CCN(Cc2cccn2-c2cccc3ccccc23)CC1` yielded an inhibition [10] of 17% and an inhibition [11] of 60%.
In the case of `N#Cc1ccccc1-n1ccc(CN2CCN(c3noc4ccccc34)CC2)c1`, the inhibition [1] is reported as 7% and the inhibition [2] is reported as 34%.
`c1ccc(N2CCN(Cc3cccn3-c3ccccc3)CC2)cc1` was tested, and the inhibition [3] was 71% and the inhibition [4] was 14%.
With `COc1ccccc1N1CCN(Cc2ccn(-c3cccc4ccccc34)c2)CC1` the inhibition [1] was 6% and the inhibition [2] was 86%.
Compound `NCCc1cccn1-c1ccccc1Cl` has an inhibition [3] of 58% and an inhibition [4] of 0%.
With `COc1ccc(OC)c(-n2cccc2CCN)c1` the inhibition [3] was 31% and the inhibition [4] was 6%.
For `N#Cc1ccccc1-n1cccc1CN1CCN(c2noc3ccccc23)CC1`, the inhibition [10] was 1% and the inhibition [11] was 43%.
`COc1ccccc1N1CCN(Cc2cccn2-c2ccccc2OC)CC1` showed an inhibition [10] of 16% and an inhibition [11] of 80%.
